Test results from paper PMC12350126, “A novel carboxamide bromodomain inhibitor attenuates osteoarthritis via epigenetic repression of NF-κB and MAPK signaling” (Frontiers in Immunology, 2025).

Test system: IL-1β-induced Mmp3, Mmp13 and Cox2 expression in mouse articular chondrocytes
Assay: IL-1β-induced Mmp3, Mmp13, Cox2 expression in chondrocytes (qRT-PCR, western blotting)
Format: cell-based
Settings: IL-1β 1 ng/mL
Procedure: NCD was supplied by Benobio Co (Gyeonggi-do, Korea), and IL‐1β was purchased from GenScript (Piscataway, NJ, USA). NCDs were dissolved in phosphate-buffered saline (PBS) for oral administration or IA injection.
Total RNA was extracted from mouse articular chondrocytes using TRIzol (Molecular Research Center Inc., Cincinnati, OH, USA) and the primers used were for the MMPs, glyceraldehyde 3-phosphate dehydrogenase (GAPDH), and Cox2. Primers utilized were as follows: mouse Mmp3 (5′-TCCTGATGTTGGTGGCTTCAG-3′ and 5′-TGTCTTGGCAAATCCGGTGTA-3′); mouse Mmp13 (5′-TGATGGACCTTCTGGTCTTCTGG-3′ and 5′-CATCCA CATGG TTGGG AAGT TCT-3′); mouse Cox2 (5′-GGTCTGGTGCCTGGTCTGATGAT-3′ and 5′-GTCCTTTCAAGGAGAATGGTGC-3′); mouse Gapdh (5′-TCACT GCCAC CCAGA AGAC-3′ and 5′-TGTAG GCCAT GAGGT CCAC-3′). Gene transcript expression levels were normalized against that of Gapdh by qRT-PCR using SYBR premix ExTaq (Takara Bio, Shiga, Japan). Results were expressed as fold-changes relative to the expression in the control group ([20]).
The total protein was extracted from the primary cultured chondrocytes using a lysis buffer, containing 150 mM NaCl, 1% NP-40, 50 mM Tris/HCl (pH 8.0), 0.2% sodium dodecyl sulfate, and 5 mM NaF, supplemented with protease and phosphatase inhibitor mixture (Roche, Madison, WI, USA). Proteins were separated using sodium dodecyl sulfate-polyacrylamide gel electrophoresis, and western blot analysis was performed using the following antibodies: goat anti‐Cox2 (sc‐1745; Santa Cruz Biotechnology, Dallas, TX, USA), mouse anti-Erk1/2 (610408; Becton Dickinson, NJ, USA), mouse anti-IκB [9242; Cell Signaling Technology (CST), MA, USA], mouse anti-p65 (8242; CST), mouse anti-phospho-p65 (3033; CST), mouse anti-p38 (#9212; CST), mouse anti-pp38 (#9215S; CST), mouse anti-c-Jun N-terminal kinase (Jnk) (#9252S; CST), mouse anti-pJnk (#9251S; CST), and mouse anti-pErk (#9101S; CST). Each signal was visualized using a SuperSignal West Dura Kit (Thermo Fisher Scientific, Waltham, MA, USA). Density analysis (AlphaEase FC 4.0; Alpha Innotech, CA, USA) was performed to calculate the relevant band intensities. Extracellular signal-regulated kinase (Erk) was used as the loading control ([28]).

[1] = NCD 10, 50, 100 µM, 12 h, qRT-PCR

CNC(=O)CC1C(=O)NCCN1Cc1ccc(-c2ccccc2-c2cccc3c2CN(C)C3=O)o1 (stereo not shown) [NCD, N-methyl-2-(1-((5-(2-(2-methyl-1-oxoisoindolin-4-yl)phenyl)furan-2-yl)methyl)-3-oxopiperazin-2-yl)acetamide]
Cox2 mRNA expression [1]: marked, concentration-dependent suppression
Mmp3 mRNA expression [1]: marked, concentration-dependent suppression
Mmp13 mRNA expression [1]: marked, concentration-dependent suppression
mRNA and protein levels of Cox2 (NCD 50 and 100 µM): substantially reduced
